Results as given in ChEMBL document CHEMBL1201862, “PubChem BioAssay data set” (2004).
Calls of active or inactive are those of the source. Cut-off read from the data, not from the text of the source, for most assays here: actives have a measured IC50 and inactives only a lower limit.

Assays:
Oxytocin receptor = Oxytocin receptor (Homo sapiens, UniProt P30559); assay: Fluorescence-based cell-based high throughput dose response assay for agonists of the Oxytocin Receptor (OXTR). [Related pubchem assays: 2435 (Primary screen (OXTR agonists in singlicate)), 434991 (Counterscreen (V1R agonists in triplicate)), 2482 (Summary (OXTR agonists)), 434963 (Confirmation screen (OXTR agonists in triplicate))]; type: functional
Vasopressin V1a receptor = Vasopressin V1a receptor (Homo sapiens, UniProt P37288); assay: Counterscreen for Oxytocin Receptor (OXTR) agonists: Fluorescence-based cell-based high throughput dose response assay to identify agonists of the vasopressin 1 receptor (V1R). [Related pubchem assays: 2435 (Primary screen (OXTR agonists in singlicate)), 434991 (Counterscreen (V1R agonists in triplicate)), 2482 (Summary (OXTR agonists)) …; type: functional
Streptokinase A = biological target: T1, Streptokinase A (Streptococcus pyogenes serotype M1, UniProt P10520); assay: viability-normalized secreted streptokinase activity reduction – plasminogen activation absorbance, OD405, dose response (AID 1914); type: functional, Streptococcus pyogenes M1 GAS;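 note: secreted streptokinase activity via plasminogen activation per viability signal from cell pellet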
T1 sequence (P10520 whole entry): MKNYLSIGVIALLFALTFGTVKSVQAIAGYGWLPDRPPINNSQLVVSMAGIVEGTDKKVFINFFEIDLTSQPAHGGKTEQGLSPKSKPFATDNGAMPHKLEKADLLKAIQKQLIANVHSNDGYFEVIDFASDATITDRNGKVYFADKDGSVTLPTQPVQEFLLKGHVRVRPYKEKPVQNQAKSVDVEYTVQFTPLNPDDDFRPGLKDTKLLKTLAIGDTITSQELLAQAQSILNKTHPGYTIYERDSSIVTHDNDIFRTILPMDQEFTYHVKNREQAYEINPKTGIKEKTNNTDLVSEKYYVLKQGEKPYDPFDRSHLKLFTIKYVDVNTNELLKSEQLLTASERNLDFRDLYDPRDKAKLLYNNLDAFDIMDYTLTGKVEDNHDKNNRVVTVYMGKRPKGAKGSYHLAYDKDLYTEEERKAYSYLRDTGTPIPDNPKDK

[1] = biological target: Scavenger receptor class B member 1 (Mus musculus, UniProt Q61009); assay: mouse SR-BI DiI-HDL uptake blockers – ldlA[mSR-BI] cells, fluorescence, cherry pick, dose response (AID 493194); type: functional, cell-based;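 note: cellular uptake of fluorescent DiI-labeled HDL measured as cell fluorescence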
[2] = system: Streptococcus sp. 'group A'; assay: Streptococcus pyogenes SK(-)GAS viability under kanamycin – luminescence, BacTiterGlo, confirmation, counter-screen for streptokinase expression inhibitor project, dose response (AID 1900); type: functional, organism-based
Streptococcus = assay: GAS UMAA2166 growth inhibition – luminescence, BacTiterGlo, counter-screen for streptokinase expression inhibitor project, dose response (AID 1915); type: functional, organism-based;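 note: potency for reduction of bacterial viability or growth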
HEK293 [3] = assay: cells; type: functional, cell-based; details: Homo sapiens
HEK293 [4] = assay: cells; type: functional, cell-based; details: Homo sapiens; remark: listed apart in the source
[5] = biological target: Nucleotide-binding oligomerization domain-containing protein 2 (Homo sapiens, UniProt Q9HC29); assay: PubChem AID 2334; type: functional
HEK293 [6] = assay: NOD2 signaling inhibitors in MDP-stimulated cells, cell-based, uHTS, luminescence (AID 2001); type: functional; details: Homo sapiens
HEK293 [7] = assay: cells; details: Homo sapiens
Tumor necrosis factor = Tumor necrosis factor (Homo sapiens, UniProt P01375); assay: analog potency on TNFa NF-kB signaling – cell-based, revised, SAR follow-up (AID 2337); type: functional
[8] = biological target: Nucleotide-binding oligomerization domain-containing protein 1 (Homo sapiens, UniProt Q9Y239); assay: blockers of NOD1 pathway activity – revised, SAR follow-up (AID 2333); type: functional
HEK293 [9] = assay: inhibition of NOD1-driven NF-kB reporter – cell-based, luminescence, uHTS, primary screen (AID 1578); type: functional; details: Homo sapiens
[10] = biological target: G-protein coupled receptor 35 (Homo sapiens, UniProt Q9HC97); assay: inhibition of zaprinast-stimulated GPR35 beta-arrestin translocation – imaging, U2OS, beta-arrestin-GFP, zaprinast agonist, primary screen (AID 2058); type: functional;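 note: antagonist potency meaning inhibition of agonist-induced arrestin redistribution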
[11] = biological target: T2, Voltage-gated N-type calcium channel alpha-1B subunit/Amyloid beta A4 precursor protein-binding family A member 1 (Homo sapiens, UniProt Q00975+Q02410); type: protein assay
[12] = biological target: Eukaryotic translation initiation factor 4E (Mus musculus, UniProt P63073); assay: blockers of eIF4G binding by eIF4E – biochemical, TR-FRET, dose response (AID 855); type: functional;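 note: potency for disrupting eIF4E binding to eIF4GI seen as loss of FRET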
Prothrombin = Prothrombin (Bos taurus, UniProt P00735); assay: thrombin protease inhibitors – biochemical, fluorescence polarization, uHTS hits, dose response (AID 602369); type: functional
[13] = biological target: 26S proteasome non-ATPase regulatory subunit 14 (Homo sapiens, UniProt O00487); assay: inhibition of proteasome subunit RPN11 – biochemical, fluorescence polarization, uHTS hits, confirmation (AID 602368); type: functional
[14] = biological target: 72 kDa type IV collagenase (Homo sapiens, UniProt P08253); assay: Dose Response validation of uHTS RPN11 inhibitor hits using a MMP-2 Fluorescence assay.; type: functional
[15] = biological target: Induced myeloid leukemia cell differentiation protein Mcl-1 (Homo sapiens, UniProt Q07820); type: functional
[16] = biological target: T2, Voltage-gated N-type calcium channel alpha-1B subunit/Amyloid beta A4 precursor protein-binding family A member 1; type: protein assay; remark: listed apart in the source
[17] = biological target: T2, Voltage-gated N-type calcium channel alpha-1B subunit/Amyloid beta A4 precursor protein-binding family A member 1; assay: disruptors of Mint-PDZ/N-type channel peptide interaction – biochemical, HTRF, SAR follow-up (AID 2489); type: functional
[18] = biological target: T2, Voltage-gated N-type calcium channel alpha-1B subunit/Amyloid beta A4 precursor protein-binding family A member 1; assay: disruptors of Mint-PDZ/N-type channel peptide interaction – biochemical, HTRF, set 2, SAR follow-up (AID 434980); type: functional
SUMO E1/E2 = SUMO E1/E2 (Homo sapiens, UniProt P63279+Q9UBE0+Q9UBT2); assay: SAR analysis of SUMOylation using HTRF in an in-Vitro dose response assay. [Related pubchem assays (depositor defined):AID2006, AID2011, AID2018, AID2069, AID2658]; type: functional
Chain of SUMO E1/E2 (Q9UBE0 whole entry): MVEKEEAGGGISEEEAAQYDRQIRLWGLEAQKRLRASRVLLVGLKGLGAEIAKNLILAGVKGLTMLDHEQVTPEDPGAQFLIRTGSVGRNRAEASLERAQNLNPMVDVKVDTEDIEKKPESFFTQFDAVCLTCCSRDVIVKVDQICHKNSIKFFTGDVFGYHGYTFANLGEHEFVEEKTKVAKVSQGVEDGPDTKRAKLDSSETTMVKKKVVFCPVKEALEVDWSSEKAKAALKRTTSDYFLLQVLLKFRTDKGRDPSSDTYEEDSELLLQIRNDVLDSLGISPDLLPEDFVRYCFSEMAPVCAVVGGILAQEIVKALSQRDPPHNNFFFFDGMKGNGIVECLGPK
Chain of SUMO E1/E2 (Q9UBT2 whole entry): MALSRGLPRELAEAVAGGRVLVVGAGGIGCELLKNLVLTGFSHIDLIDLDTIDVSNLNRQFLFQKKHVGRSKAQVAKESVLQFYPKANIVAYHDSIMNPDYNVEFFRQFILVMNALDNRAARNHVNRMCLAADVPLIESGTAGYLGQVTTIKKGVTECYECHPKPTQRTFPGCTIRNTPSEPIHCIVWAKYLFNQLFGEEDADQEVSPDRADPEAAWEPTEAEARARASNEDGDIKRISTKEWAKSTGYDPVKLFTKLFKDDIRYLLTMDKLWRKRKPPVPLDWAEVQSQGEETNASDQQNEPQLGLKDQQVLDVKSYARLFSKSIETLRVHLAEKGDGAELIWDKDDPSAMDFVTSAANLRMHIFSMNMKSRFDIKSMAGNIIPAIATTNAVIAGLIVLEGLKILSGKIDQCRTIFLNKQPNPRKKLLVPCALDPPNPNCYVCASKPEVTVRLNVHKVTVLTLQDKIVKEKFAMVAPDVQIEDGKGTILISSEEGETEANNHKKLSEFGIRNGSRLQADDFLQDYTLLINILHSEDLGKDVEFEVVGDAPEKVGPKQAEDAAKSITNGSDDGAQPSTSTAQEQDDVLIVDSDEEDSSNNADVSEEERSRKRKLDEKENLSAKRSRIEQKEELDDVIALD
Chain of SUMO E1/E2 (P63279 whole entry): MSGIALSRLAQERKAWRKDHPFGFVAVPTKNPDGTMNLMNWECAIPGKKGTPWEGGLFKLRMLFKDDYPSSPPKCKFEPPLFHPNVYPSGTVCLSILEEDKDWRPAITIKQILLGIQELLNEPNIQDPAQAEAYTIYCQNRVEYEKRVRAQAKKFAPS

T2 sequence (Q00975 whole entry): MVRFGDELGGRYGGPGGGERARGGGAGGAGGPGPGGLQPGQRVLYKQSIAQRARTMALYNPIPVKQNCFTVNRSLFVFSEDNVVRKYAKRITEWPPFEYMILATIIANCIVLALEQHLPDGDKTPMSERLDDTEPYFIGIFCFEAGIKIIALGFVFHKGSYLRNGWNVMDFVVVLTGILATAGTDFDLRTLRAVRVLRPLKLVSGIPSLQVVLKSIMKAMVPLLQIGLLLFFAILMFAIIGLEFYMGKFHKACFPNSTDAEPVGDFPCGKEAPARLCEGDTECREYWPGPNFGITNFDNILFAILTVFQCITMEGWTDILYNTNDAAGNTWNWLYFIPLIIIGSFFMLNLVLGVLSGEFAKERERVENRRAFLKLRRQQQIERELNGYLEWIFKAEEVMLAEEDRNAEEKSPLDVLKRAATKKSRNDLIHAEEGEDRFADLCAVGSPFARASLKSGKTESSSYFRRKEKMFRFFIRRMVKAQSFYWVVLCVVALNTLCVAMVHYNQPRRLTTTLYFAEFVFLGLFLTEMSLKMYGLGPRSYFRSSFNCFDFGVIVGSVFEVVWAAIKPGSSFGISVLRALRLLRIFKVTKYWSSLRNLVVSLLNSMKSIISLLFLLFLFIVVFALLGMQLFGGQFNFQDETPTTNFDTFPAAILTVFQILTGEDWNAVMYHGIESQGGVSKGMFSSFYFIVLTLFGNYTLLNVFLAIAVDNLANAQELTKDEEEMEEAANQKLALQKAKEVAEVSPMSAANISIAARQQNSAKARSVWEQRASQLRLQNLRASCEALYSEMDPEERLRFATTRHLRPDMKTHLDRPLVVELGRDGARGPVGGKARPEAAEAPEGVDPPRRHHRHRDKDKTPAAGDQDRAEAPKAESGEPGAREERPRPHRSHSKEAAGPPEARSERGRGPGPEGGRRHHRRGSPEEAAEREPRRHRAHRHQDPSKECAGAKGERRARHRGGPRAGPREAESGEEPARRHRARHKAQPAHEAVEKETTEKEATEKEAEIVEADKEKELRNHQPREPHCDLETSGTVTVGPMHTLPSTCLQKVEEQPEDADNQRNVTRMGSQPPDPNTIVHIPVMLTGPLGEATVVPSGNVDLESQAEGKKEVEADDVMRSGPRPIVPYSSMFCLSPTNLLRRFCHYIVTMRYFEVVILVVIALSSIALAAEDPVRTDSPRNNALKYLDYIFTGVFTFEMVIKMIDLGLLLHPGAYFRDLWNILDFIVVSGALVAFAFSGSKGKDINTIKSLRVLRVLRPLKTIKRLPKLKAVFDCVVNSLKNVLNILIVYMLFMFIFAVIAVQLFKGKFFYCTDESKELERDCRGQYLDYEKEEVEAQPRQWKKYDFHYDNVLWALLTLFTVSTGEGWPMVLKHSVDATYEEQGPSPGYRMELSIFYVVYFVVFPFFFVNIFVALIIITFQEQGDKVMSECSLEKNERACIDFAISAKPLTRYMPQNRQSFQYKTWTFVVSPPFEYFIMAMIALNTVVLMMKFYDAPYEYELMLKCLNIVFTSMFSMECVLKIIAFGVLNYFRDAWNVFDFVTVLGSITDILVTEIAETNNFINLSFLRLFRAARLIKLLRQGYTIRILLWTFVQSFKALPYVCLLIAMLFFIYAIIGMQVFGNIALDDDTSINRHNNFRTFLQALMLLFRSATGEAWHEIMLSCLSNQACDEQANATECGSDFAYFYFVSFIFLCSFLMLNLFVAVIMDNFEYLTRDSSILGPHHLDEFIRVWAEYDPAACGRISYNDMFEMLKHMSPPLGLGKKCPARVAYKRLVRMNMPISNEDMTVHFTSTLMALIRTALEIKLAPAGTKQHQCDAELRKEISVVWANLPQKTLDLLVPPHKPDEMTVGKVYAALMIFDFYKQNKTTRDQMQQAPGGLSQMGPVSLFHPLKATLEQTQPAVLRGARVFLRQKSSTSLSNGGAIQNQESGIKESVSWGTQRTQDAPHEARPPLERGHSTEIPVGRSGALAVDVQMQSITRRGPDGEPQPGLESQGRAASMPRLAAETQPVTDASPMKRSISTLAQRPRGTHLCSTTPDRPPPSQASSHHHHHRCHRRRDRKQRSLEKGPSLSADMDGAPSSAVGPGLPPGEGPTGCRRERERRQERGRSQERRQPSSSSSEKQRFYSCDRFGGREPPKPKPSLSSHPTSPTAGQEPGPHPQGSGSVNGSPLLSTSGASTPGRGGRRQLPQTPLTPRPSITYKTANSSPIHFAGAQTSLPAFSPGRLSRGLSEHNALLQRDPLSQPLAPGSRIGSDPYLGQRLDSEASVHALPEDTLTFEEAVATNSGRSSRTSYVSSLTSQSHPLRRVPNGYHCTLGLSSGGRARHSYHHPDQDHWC
T2 sequence (Q02410 whole entry): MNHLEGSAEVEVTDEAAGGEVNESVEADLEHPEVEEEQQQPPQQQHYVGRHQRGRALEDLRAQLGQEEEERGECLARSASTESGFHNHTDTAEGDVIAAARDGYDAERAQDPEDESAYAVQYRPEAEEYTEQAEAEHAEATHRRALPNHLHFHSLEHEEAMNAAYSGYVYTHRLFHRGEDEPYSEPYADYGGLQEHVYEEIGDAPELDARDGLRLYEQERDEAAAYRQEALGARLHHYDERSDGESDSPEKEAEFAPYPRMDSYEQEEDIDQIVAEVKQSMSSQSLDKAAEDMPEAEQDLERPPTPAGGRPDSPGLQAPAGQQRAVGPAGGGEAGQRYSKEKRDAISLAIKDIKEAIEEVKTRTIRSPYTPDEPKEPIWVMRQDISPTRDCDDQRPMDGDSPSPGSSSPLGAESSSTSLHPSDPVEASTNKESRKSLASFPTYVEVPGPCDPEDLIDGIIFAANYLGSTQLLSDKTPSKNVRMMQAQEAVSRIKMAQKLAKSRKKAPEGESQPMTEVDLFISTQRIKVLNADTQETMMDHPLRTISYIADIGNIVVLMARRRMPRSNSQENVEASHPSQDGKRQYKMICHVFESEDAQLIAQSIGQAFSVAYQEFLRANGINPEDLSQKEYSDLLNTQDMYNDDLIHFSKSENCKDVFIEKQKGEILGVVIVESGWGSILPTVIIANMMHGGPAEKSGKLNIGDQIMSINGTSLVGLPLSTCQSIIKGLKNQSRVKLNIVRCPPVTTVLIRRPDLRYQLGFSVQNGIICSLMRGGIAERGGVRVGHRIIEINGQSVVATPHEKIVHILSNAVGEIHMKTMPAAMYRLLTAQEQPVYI
Chain of Scavenger receptor class B member 1 (Q61009 whole entry): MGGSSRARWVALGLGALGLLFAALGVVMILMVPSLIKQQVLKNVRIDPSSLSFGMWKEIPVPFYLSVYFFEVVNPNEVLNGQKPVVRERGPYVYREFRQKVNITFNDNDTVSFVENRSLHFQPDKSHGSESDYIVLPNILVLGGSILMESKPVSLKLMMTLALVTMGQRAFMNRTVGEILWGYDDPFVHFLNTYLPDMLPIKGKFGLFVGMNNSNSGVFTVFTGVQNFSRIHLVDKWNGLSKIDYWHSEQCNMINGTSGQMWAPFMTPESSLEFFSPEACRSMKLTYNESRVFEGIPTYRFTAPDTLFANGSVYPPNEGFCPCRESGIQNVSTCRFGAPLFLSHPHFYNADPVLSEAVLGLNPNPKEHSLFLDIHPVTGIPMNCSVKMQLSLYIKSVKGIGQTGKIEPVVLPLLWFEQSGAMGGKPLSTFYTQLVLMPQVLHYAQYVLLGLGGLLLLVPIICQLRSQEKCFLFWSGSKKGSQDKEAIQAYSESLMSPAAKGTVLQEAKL
Chain of Tumor necrosis factor (P01375 whole entry, the tested form may be a part): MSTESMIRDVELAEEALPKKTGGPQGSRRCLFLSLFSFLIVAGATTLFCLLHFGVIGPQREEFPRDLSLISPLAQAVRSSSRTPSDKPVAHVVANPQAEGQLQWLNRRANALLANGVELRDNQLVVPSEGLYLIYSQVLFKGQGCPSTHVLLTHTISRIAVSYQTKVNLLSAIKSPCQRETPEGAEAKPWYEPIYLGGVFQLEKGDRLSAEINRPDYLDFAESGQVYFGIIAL

SMILES: CC(C(=O)Nc1ccc2c(c1)OCO2)c1ccc([N+](=O)[O-])cc1 (stereo not given)
- EC50 (Oxytocin receptor): > 29.9 µM (not active)
- EC50 (Vasopressin V1a receptor): > 29.9 µM (not active)

SMILES: O=C(Nc1ccc(-c2csc(Nc3ccccc3)n2)cc1)c1cccc(C(F)(F)F)c1
- EC50 (Streptokinase A): > 150 µM (not active)
- AC50 [1]: 0.347 µM (active)
- EC50 [2]: > 150 µM (not active)
- EC50 (Streptococcus): > 150 µM (not active)

SMILES: COc1cccc(Nc2nc3ccccc3nc2NS(=O)(=O)c2cccs2)c1
- IC50 (HEK293 [3]): > 20 µM (inactive)
- IC50 (HEK293 [4]): > 20 µM (inactive)
- IC50 [5]: 6.08 µM (active)
- IC50 (HEK293 [6]): 11.5 µM (inactive)
- IC50 (HEK293 [7]): > 20 µM (inactive)
- IC50 (Tumor necrosis factor): 12.3 µM (active)
- IC50 [8]: 4.68 µM (active)
- EC50 (HEK293 [9]): 3.67 µM (active)

SMILES: N=C1/C(=C/c2ccc(-c3cccc(C(=O)O)c3)o2)C(=O)N=C2SC=C(c3ccccc3)N12
- IC50 [10]: 1.1 µM (active)
- IC50 [11]: > 50 µM (inactive)
- IC50 [12]: 18.1 µM (active)
- IC50 (Prothrombin): 10.2 µM (active)
- IC50 [13]: 5.82 µM (active)
- IC50 [14]: 6.29 µM (active)
- IC50 [15]: > 54 µM (active)
- IC50 [16]: 13.3 µM (active)

SMILES: O=C(NN=Cc1ccc(F)cc1)c1cc(-c2ccco2)nc2ccccc12
- IC50 [17]: 6.45 µM (active)
- IC50 [18]: 10.9 µM (active)
- IC50 (SUMO E1/E2): 5.24 µM (active)
